Results published in a melting point compilation (Tetko et al.; mined from patent text by program, amines drawn as free bases though some values may be those of a salt).

Compound `CCC(CC)C(=O)Nc1nc(C)co1` has a melting point of 106 °C. Compound `CCOc1nn(CCOc2c(CC)cccc2CC(=O)O)cc1C(=O)NCc1ccc(Cl)cc1Cl` has a melting point of 129 to 131 °C. Work on `N#Cc1ccccc1Cn1ccc(OCc2ccc(F)cc2F)c(Br)c1=O` yielded a melting point of 194 to 197 °C. Compound `COC(=O)c1ccc(C#CC2(O)CN3CCC2CC3)nc1` (centres undefined) has a melting point of 180 to 182 °C. `CC(C)[C@@H]1C[C@H](O)[C@H](CC2CCCCC2)NC1=O` gave a melting point of 97 to 99 °C. Compound `NC(=O)N1CCCC1COc1cncc(Cl)c1` (centres undefined) has a melting point of 95 °C. For `COc1ccc(C=C2Oc3ccc(C(=O)O)cc3C2=O)c(OC)c1OC`, the melting point was 247 to 249 °C. `Cc1cccc2nc(C(S)c3ncnc4[nH]cnc34)n(-c3ccccc3Cl)c(=O)c12` (centres undefined) gave a melting point of 228 to 230 °C. For `CCN(C)C(=N)N[N+](=O)[O-]`, the melting point was 124 to 125 °C. In the case of `O=C(O)c1ccccc1Nc1ccc(I)cc1`, the melting point is reported as 205 to 206 °C. Work on `COc1ccc(CSc2nnc(-c3ccnc(NC(=O)OC(C)(C)C)c3)o2)cc1F` yielded a melting point of 244 to 245 °C. With `CSc1ncc(CO)c(N)n1` the melting point was 124 to 127 °C. For `C/C(=N\OC(=O)C1CCN(C(=O)OC(C)(C)C)CC1)[C@H]1CC[C@H]2[C@@H]3CCC4=CC(=O)CC[C@]4(C)[C@H]3CC[C@]12C`, the melting point was 167 to 169 °C. With `CC1(C)COC(=O)[C@H]1NC(=O)[C@@H](CC(=O)OCc1ccccc1)n1ccc(-c2ccc(-c3ccncc3)cc2)c1` the melting point was 175 to 177 °C. Work on `COC(=O)CN1CCC(OC)(c2cccc(OCc3ccc4ccccc4c3)c2)C1` (centres undefined) yielded a melting point of 78 to 80 °C. Compound `COc1ccc2nc(NC(=O)COC(=O)c3ccccc3)sc2c1` has a melting point of 203 to 204 °C. With `CCOC(=O)Nc1c(C(=O)c2ccccc2)[nH]c2cc(Cl)ccc12` the melting point was 159 to 161 °C. `N#Cc1cccc(NC(=O)NC2N=C(c3ccccc3F)c3ccccc3N(CC(=O)N3CC4CCC(CC4)C3)C2=O)c1` (racemic) gave a melting point of 188 to 195 °C. In the case of `COC(=O)C1Cc2c([nH]c3ccccc23)C(c2ccccc2)N1` (centres undefined), the melting point is reported as 217 to 218 °C. In the case of `CNC(=NC#N)NCCCCc1nccc(NC(N)=NCCOC)n1`, the melting point is reported as 162 to 165 °C. Work on `COc1cc(C)c(C=CC(C)=CC=CC(C)=CCO)c(C)c1C` yielded a melting point of 128 to 130 °C. With `CCOC(=O)c1cc2c(cn1)[nH]c1c(Br)cc([N+](=O)[O-])cc12` the melting point was 291 to 292 °C. `CCC(C)c1cc(Cl)cc(Cl)c1OCC(=O)N1CCSC1=S` (centres undefined) showed a melting point of 96 °C. With `CCN(CC)C(=O)N1CCN(c2nc(-c3ccccc3)cs2)CC1` the melting point was 76 to 77 °C. `CCC1(CCCCN2CCN(c3ccccn3)CC2)C(=O)Nc2ccc(F)cc21` (centres undefined) gave a melting point of 144 to 147 °C. In the case of `CCOC(=O)Cc1ccc(OCCCCl)c(OC)c1`, the melting point is reported as 36 to 38 °C. Work on `COC(=O)c1cccc(-c2cccnc2)c1` yielded a melting point of 125 to 126 °C. Compound `C=C1CC2C(CCC3(C)C2CCC3(OC(C)=O)C(C)=O)C2(C)CCC(=O)C=C12` (centres undefined) has a melting point of 234 to 236 °C. Compound `Cc1cc(OCc2coc(/C=C/c3ccc(C(F)(F)F)cc3)n2)ccc1CS(=O)CCc1ccnn1C` (centres undefined) has a melting point of 161 to 162 °C. Compound `Cc1ccc(-c2c(CNC(=O)OC(C)(C)C)n(CC(C)C)c(=O)c3ccc(/C=C/C(=O)O)cc23)cc1` has a melting point of 171 to 173 °C. With `Cc1cccc(C2CC(=O)c3ccccc3O2)c1` (centres undefined) the melting point was 156 to 158 °C. Work on `CON=Cc1nc2c(N)nc3cc(Br)ccc3c2s1` yielded a melting point of 262 to 264 °C. `COc1cc2c(cc1OC)NC(=O)N(CCCN(C)CCCSc1ccccc1)CC2` showed a melting point of 107 to 110 °C. In the case of `Cc1onc(-c2ccc(Br)cc2)c1-c1ccc(S(N)(=O)=O)cc1`, the melting point is reported as 152 to 153 °C. `CCCCN(CCCC)C(=S)Nc1ccc(NNC=O)cc1` showed a melting point of 139 to 141 °C. For `COCCNC(NC(=O)c1cccnc1)C(Cl)(Cl)Cl` (centres undefined), the melting point was 75 to 77 °C. Compound `Cc1ccc([N+](=O)[O-])c(C#N)c1` has a melting point of 90 to 91 °C. `CN1C(=O)c2cnc(-c3ccccc3)nc2Nc2ccccc21` gave a melting point of 227 °C. `COc1cccc(S(=O)(=O)c2cccc(N)c2C#N)c1` gave a melting point of 186 to 191 °C. Compound `Cc1nn(C2=NNN(S)C2N)c2c1CCCC2` (centres undefined) has a melting point of 201 to 202 °C. For `Cc1cc(-c2c(Cl)ccc(C(=O)O)c2Cl)on1`, the melting point was 154 to 156 °C. Compound `Oc1cc(Cl)c2nc(-c3ccc(O)c(F)c3)cc(Br)c2c1` has a melting point of 184 to 186 °C. For `CCOC(=O)c1cn(Cc2ccc(OCc3nc(-c4ccccc4)oc3C)cc2)nc1O`, the melting point was 152 to 153 °C. With `Cc1sc2c(Br)c3ccccc3c(-c3ccc(OS(=O)(=O)c4ccc(C(=O)O)c(O)c4)c(C(C)C)c3)c2c1C` the melting point was > 225 °C. Compound `O=C(O)c1ccc(C(=O)NOCc2ccc3ccccc3c2)cc1` has a melting point of 241 to 243 °C. `O=Cc1cnn(-c2cccc(C(F)(F)F)c2)c1` showed a melting point of 80 to 82 °C. Compound `CN1Cc2nc[nH]c2C[C@@H]1C(=O)c1ccccc1` has a melting point of 98 °C. For `CC(=O)Oc1c(C)cc2c(c1C)C(C)CN2C(C)=O` (centres undefined), the melting point was 128 to 130 °C. Compound `COc1cccc(N2CCN(S(=O)(=O)c3ccc(/C=C/C(=O)NO)cc3)CC2)c1` has a melting point of 199 to 200 °C.
